{
  "source": "patent US20250281568A1",
  "about": "“METHOD FOR TREATING OR PREVENTING DRUG-INDUCED LIVER INJURY WITH PEPTIDE COMPOSITION” (Tunghai University, priority 2024, published 2025)",
  "type_in_all_cases": "in vivo",
  "key": {"BALB/cByJNarl mice [1]": {"system": "BALB/cByJNarl mice", "assay": "Analysis of stained liver tissue sections (H&E, immunohistochemical staining) of mice injected with acetaminophen", "conditions": "50 mg/kg/day oral, 7 days", "method": "(§1) After being raised under the corresponding conditions for 7 days, each group of mice was weighed and then fasted for 12 hours. After fasting, each group of mice was intraperitoneally injected with an acetaminophen solution at 300 mg/kg. 24 hours after the injection, the mice were sacrificed, and blood was collected from the mice.\nThe liver tissue collected from each group of mice in example 2 was sectioned and then subjected to immunohistochemical staining with hematoxylin and eosin (H&E) and with different antibodies."}, "BALB/cByJNarl mice [2]": {"system": "BALB/cByJNarl mice", "assay": "Biochemical analysis of blood (serum) of mice injected with acetaminophen", "conditions": "50 mg/kg/day oral, 7 days", "method": "as §1\nThe blood collected from each group of mice in example 2 was analyzed with a commercial assay kit in order to determine the concentrations of aspartate aminotransferase (AST), alanine aminotransferase (ALT), alkaline phosphatase (ALP), C-reactive protein (CRP), interleukin-6 (IL-6), and monocyte chemoattractant protein-1 (MCP-1) in the serum of each group of mice."}, "[3]": {"assay": "Animal test: body weight and organ weights of mice", "conditions": "50 mg/kg/day oral, 7 days, then acetaminophen 300 mg/kg i.p.", "method": "as §1"}, "BALB/cByJNarl mice [4]": {"system": "BALB/cByJNarl mice", "assay": "Analysis of proteins in the liver of mice injected with acetaminophen", "conditions": "50 mg/kg/day oral, 7 days; vs control group", "method": "as §1\nLivers were collected from each group of mice in example 2 and were analyzed in order to determine the concentrations of superoxidase dismutase (SOD), glutathione peroxidase (GPx), and glutathione (GSH) in the livers."}, "[5]": {"conditions": "immunohistochemical staining, vs control group"}},
  "data": [
    {"smiles": "NCCC(=O)N[C@@H](Cc1cnc[nH]1)C(=O)O", "note": "[carnosine]", "values": [
      {"measurement": "expression amount of 4-hydroxy-2-nonenal (4-HNE) in the liver", "setting": "BALB/cByJNarl mice [1]; [5]", "value": "significantly less"},
      {"measurement": "expression amount of GSH in the liver", "setting": "BALB/cByJNarl mice [1]; [5]", "value": "significantly greater"},
      {"measurement": "expression amount of Kelch-like ECH-associated protein 1 (Keap1) in the liver", "setting": "BALB/cByJNarl mice [1]; [5]", "value": "significantly less"},
      {"measurement": "expression amount of heme oxygenase 1 (HO-1) in the liver", "setting": "BALB/cByJNarl mice [1]; [5]", "value": "significantly greater"},
      {"measurement": "expression amount of nuclear factor erythroid 2-related factor 2 (Nrf2) in the liver", "setting": "BALB/cByJNarl mice [1]; [5]", "value": "significantly greater"},
      {"measurement": "liver cell damage (H&E-stained liver section)", "setting": "BALB/cByJNarl mice [1]; vs blank group", "value": "significantly damaged in comparison with those of the blank group"},
      {"measurement": "liver cell damage (H&E-stained liver section)", "setting": "BALB/cByJNarl mice [1]; vs control group", "value": "damaged to a smaller extent than those of the control group"},
      {"measurement": "serum CRP concentration", "setting": "BALB/cByJNarl mice [2]; vs blank group", "value": "not significantly different from that of the blank group"},
      {"measurement": "serum ALP concentration", "setting": "BALB/cByJNarl mice [2]; vs control group", "value": "significantly lower than those of the control group"},
      {"measurement": "serum ALT concentration", "setting": "BALB/cByJNarl mice [2]; vs control group", "value": "significantly lower than those of the control group"},
      {"measurement": "serum AST concentration", "setting": "BALB/cByJNarl mice [2]; vs control group", "value": "significantly lower than those of the control group"},
      {"measurement": "serum CRP concentration", "setting": "BALB/cByJNarl mice [2]; vs control group", "value": "significantly lower than that of the control group"},
      {"measurement": "serum IL-6 concentration", "setting": "BALB/cByJNarl mice [2]; vs control group", "value": "lower than that of the control group"},
      {"measurement": "serum MCP-1 concentration", "setting": "BALB/cByJNarl mice [2]; vs control group", "value": "significantly lower than that of the control group"},
      {"measurement": "weight of heart", "setting": "[3]; 24 hours, among the groups", "value": "no significant difference in the weight of heart"},
      {"measurement": "liver weight", "setting": "[3]; vs control group", "value": "liver weight of the control group of mice was significantly higher than those of the other groups"},
      {"measurement": "liver GPx concentration", "setting": "BALB/cByJNarl mice [4]", "value": "significantly higher than those of the control group"},
      {"measurement": "liver GSH concentration", "setting": "BALB/cByJNarl mice [4]", "value": "significantly higher than those of the control group"},
      {"measurement": "liver SOD concentration", "setting": "BALB/cByJNarl mice [4]", "value": "significantly higher than those of the control group"}
    ]}
  ]
}
